Measured values: patent US12661404B2, “Methods and materials for tissue ablation” (Mayo Foundation for Medical Education and Research, priority 2020, dated 2026)

Key:
[1] = test system: human hepatocellular carcinoma (Hep-G2) cells; experiment: cells; details: HepG2, 24 h, read-out: EC50, fractional viability
Protocol: HepG2 human liver cancer cell line (ATCC CRL10741; American Type Culture Collection, Manassas, VA, USA) were cultured in 75 cm^2 flasks using growth medium consisting of low glucose Dulbecco's Modified Eagle Medium (DMEM, ThermoFisher) and 10% heat-inactivated bovine serum that was supplemented with 100 IU penicillin and 10 μg/mL streptomycin (Thermo Fisher Scientific). […] The anticancer activity of LATTE on HepG2 was determined using WST-1 reagent (2-(4-Iodophenyl)-3-(4-nitrophenyl)-5-(2,4-disulfophenyl)-2H-tetrazolium sodium) assay as an indication of viability/cytotoxicity treatment. WST-1 viability assay is based on the reduction of tetrazolium salt, WST-1 to an insoluble formazan dye by electron transport across the plasma membrane in viable cells that alter the optical density of the media. […] Cell viability was calculated relative to control wells that received the growth medium alone.
All reported values are the means of three replicate experiments with each study having 8 wells per dose level. Plots of the log concentration versus fractional viability for each drug were generated for each study.

rat liver = details: solubilized with ICG in 25%-LATTE, injected into rat liver
Protocol: Time-dependent evaluation of chemotherapy drug diffusion and retention following LATTE injection in rat liver. […] Post necropsy, near-infrared fluorescent scans (NIRF) showing ICG retention at the two injection sites. […] Fluorescent scans visualizing Doxorubicin at the medial location of the same liver.
Intrahepatic injections or LATTE mixtures were performed in Sprague Dawley rats via laparotomy. Anesthetized rats were placed in a supine position on a warming platform. The abdominal hair was removed with an electric shaver and scrubbed to disinfect the skin with triple applications of povidone-iodine alternating with 70% alcohol. […]
To assess differences in ICG or doxorubicin spreading and retention following intrahepatic injections, ex vivo spectral fluorescence imaging was performed on fixed liver tissues using the IVIS 200 system (PerkinElmer, Inc. USA). […] Cross-sectional images were acquired following near-infrared illumination at the excitation wavelength of 750 nm, while fluorescent emission was acquired at 850 nm to visualize indocyanine green (ICG); Doxorubicin was detected at an excitation wavelength of 460 nm and an emission wavelength of 560 nm. […] Fluorescent intensity was quantified in the region of interest (ROI) of each tissue. […]

renal artery = test system: renal artery; design: species or system swine; details: in vivo
Protocol: Healthy Yorkshire pigs (S&S Farms, Brentwood, CA) weighing 48 to 55 kg were acclimatized for at least 4 days under standard feeding conditions and suitable temperature. Pigs were anesthetized using intramuscular injection of 5 mg kg^−1 tiletamine-zolazepam (Telazol, Zoetis), […] xylazine, and 0.02 mg kg^−1 glycopyrrolate. Pigs were then placed in a supine position and intubated on an X-ray compatible operating table (Pannomed Aeron, DRE, KY). Following intubation, anesthesia was maintained with inhalation of 1.5-3% isoflurane. During the procedure, electrocardiogram, transcutaneous oxyhemoglobin saturation (SpO2), end-tidal CO2 concentration, inspired oxygen fraction, and core temperature were monitored. Percutaneous access to the carotid artery was obtained using ultrasound guidance (ACUSON 52000, Siemens) and fluoroscopy (OEC Elite C-Arm, GE Healthcare Systems, Chicago, IL). Access needle and wire were exchanged for a 5 French catheter (Cook Medical). Over a GT-glidewire (Terumo Medical), the tip of the catheter was advanced to the renal using contrast-enhanced fluoroscopy (350 mgI mL-1 Omnipaque, GE HealthCare, MA). […] The radiopacity of NanoGel or NS hydrogel and vessel patency were assessed using digital subtraction angiography. […] At necropsy, the embolized kidneys were explanted for fluorescence imaging and histology.

COc1cccc2c1C(=O)c1c(O)c3c(c(O)c1C2=O)C[C@@](O)(C(=O)CO)C[C@@H]3O[C@H]1C[C@H](N)[C@H](O)[C@H](C)O1 [Doxorubicin]
EC50 [1]: 1630 nM | doxorubicin retention throughout the affected zone (rat liver): up to 28 days

Nivo: immunotherapy agent Nivolumab (an anti PD-1 antibody)
nivolumab localization (immunohistochemistry) (renal artery): localized inside the renal artery and in the surrounding area
